Columns and labels:
[1] = Kinetic study to determine turnover frequency of copper-mediated depropargylation of PPE; conditions: 200 nM Cu^2+, 20 μM PPE, 160 μM DMAPPP
Experimental: To determine whether this method was a catalytic method, we monitored the reaction over time (FIG. 11). A standard curve was prepared for dichlorofluorescein (DCF) by dissolving the solid in EtOH to a concentration of 20 mM. The DCF was then diluted to 500 μM in EtOH. A stock solution was prepared by adding 500 mM pH 8.5 borate buffer (600 μL), EtOH (81.6 μL), 500 μM DCF in EtOH (32 μL), 20 mM DMAPPP in DMSO (6.4 μL). This stock solution (200 μL) was then transferred to a black 96-well plate.
The diluent was prepared by mixing 500 mM borate pH 8.5 buffer (9.00 mL), EtOH (1.70 mL), and 20 mM DMAPPP in DMSO (96 μL). The diluent (100 μL) was transferred to the black 96-well plate. 2× serial dilutions were performed by removing 100 μL of the stock solution from the wells and adding it to the wells containing the diluent. […] The fluorescence of these solutions was measured and a standard curve was generated.
The working solution was prepared by mixing 500 mM borate pH 8.5 buffer (1.20 mL), EtOH (187 μL), 800 μM PPE in EtOH (40 μL), 20 mM DMAPPP in DMSO (12.8 μL) in a conical tube. […] 0 or 2.0 μM Cu^2+ (20 μL) was then added to the wells and the fluorescence was measured every 5 min for 2 h.
The fluorescence value was converted to a concentration of Pittsburgh Green using the linear regression generated from the standard curve of DCF. The fluorescence vs. time was then plotted.

HeLa cells = assay: Fluorescence imaging of copper ions in live HeLa cells; format: cell-based; conditions: HeLa cells loaded with 1 mM CuSO4, 20 μM PPE, 160 μM DMAPPP, 15 min
Experimental: Finally, we applied our method to imaging cellular pools of copper. HeLa cells were loaded with 1 mM CuSO4 in DMEM for 30 min at 37° C. The cells were washed. PPE and DMAPPP were added during imaging to a final concentration of 20 μM and 160 μM, respectively. Images were obtained on a Nikon Ti microscope equipped with a 60× (1.4 NA) objective.

[2] = Fluorescence intensity of Pittsburgh Green versus PPE; format: physicochemical
Experimental: All fluorescence measurements were obtained using a Modulus II Microplate Multimode Reader. Fluorescence was measured after exciting samples with 490 nm light and emission was measured between 510-570 nm. All fluorescence measurements were obtained at room temperature.

ratio of fluorescence intensities Pittsburgh Green fluorophore : PPE [2]: 200-400 :1
Substance: Propargyl Pittsburgh Green ether [PPE]
concentration of reaction product (Pittsburgh Green) produced ([1]; after one hour): approximately 480 nM | turnover frequency ([1]; borate pH 8.5): ~2.4 per hour | fluorescence within cells (HeLa cells): time-dependent increase in fluorescence

From patent publication US11781984B2, “Fluorescent method to quantify copper or platinum based on catalysis” (University of Pittsburgh—Of the Commonwealth System of …, priority 2018, dated 2023)
